The values below come from ChEMBL document CHEMBL5352410, “Discovery of novel selenium-containing azole derivatives as antifungal agents by exploiting the hydrophobic cleft of CYP51” (Eur J Med Chem, 2022).

pIC50: −log10 of the molar value. Converted amounts (≈) assume the structure as drawn.

Broadly, the MIC is the smallest concentration in the dilution series that meets the test's criterion for growth inhibition. Low readings indicate inhibition by little substance, high ones a need for much substance. The MFC is the smallest concentration meeting the test's criterion for killing the fungus. Low values mean more potent killing, high ones less potent killing. For orientation: pIC50 means −log10 of the IC50, conventionally taken in molar units. A higher pIC50 goes with a low IC50.

In data set [1] the test system is Candida albicans. Description: Antifungal activity against FCZ-resistant Candida albicans 904 by CLSI based broth microdilution method. The format is functional. On the technique in general: Dilution methods test growth across graded concentrations, often in twofold steps.
A further data set concerns Pichia kudriavzevii. In words: Antifungal activity against Pichia kudriavzevii by CLSI based broth microdilution method. The format is functional.
For data set [2], the system named is Candida albicans. Description: Fungicidal activity against FCZ-resistant Candida albicans 17#. The format is functional.
Data set [3] has as its system Candida albicans. In words: Fungicidal activity against Candida albicans sc5314. The data set is classed as functional.
For data set [4], the system named is Candida albicans. In words: Fungicidal activity against FCZ-resistant Candida albicans 901. The format is functional.
In data set [5] the test system is Candida albicans. In words: Antifungal activity against FCZ-resistant Candida albicans 632 by CLSI based broth microdilution method. The format is functional.
The test system of a further data set is Candida parapsilosis. In words: Antifungal activity against Candida parapsilosis by CLSI based broth microdilution method. The note with it: Lodderomyces parapsilosis. The data set is classed as functional.
Another data set relates to [Candida] zeylanoides. In words: Antifungal activity against Candida zeylanoides by CLSI based broth microdilution method. The note with it: Dujonia zeylanoides. The format is functional.
The next data set has as its system Nakaseomyces glabratus. In words: Antifungal activity against Candida glabrata by CLSI based broth microdilution method. The format is functional.
The subject of data set [6] is Candida albicans. Description: Fungicidal activity against FCZ-resistant Candida albicans CaR. The format is functional.
Data set [7] concerns Candida albicans. Description: Antifungal activity against Candida albicans sc5314 by CLSI based broth microdilution method. The data set is classed as functional.
For data set [8], the system named is Candida albicans. In words: Antifungal activity against FCZ-resistant Candida albicans 17# by CLSI based broth microdilution method. The format is functional.
The subject of data set [9] is Candida albicans. Description: Fungicidal activity against FCZ-resistant Candida albicans 632. The data set is classed as functional.
Another data set deals with Aspergillus fumigatus. Description: Antifungal activity against Aspergillus fumigatus by CLSI based broth microdilution method. The format is functional.
The next data set relates to Cryptococcus neoformans. In words: Antifungal activity against Cryptococcus neoformans by CLSI based broth microdilution method. The format is functional.
Data set [10] relates to Candida albicans. Description: Antifungal activity against Candida albicans by CLSI based broth microdilution method. The data set is classed as functional.
In data set [11] the test system is Candida albicans. Description: Fungicidal activity against Candida albicans. The data set is classed as functional.
Data set [12] relates to Candida albicans. In words: Antifungal activity against FCZ-resistant Candida albicans 901 by CLSI based broth microdilution method. The data set is classed as functional.
In data set [13] the test system is Candida albicans. Description: Antifungal activity against FCZ-resistant Candida albicans CaR by CLSI based broth microdilution method. The format is functional.
Data set [14] has as its system Candida albicans. Description: Fungicidal activity against FCZ-resistant Candida albicans 904. The data set is classed as functional.
Data set [15] can be described thus: Cytotoxicity against human PC-3 cells by MTT assay. The data set is classed as toxicity, cell-based.
Data set [16] is described as follows: Cytotoxicity against human HL-60 cells by MTT assay. The data set is classed as toxicity, cell-based.

On to `Clc1ccc(C(Cn2ccnc2)[Se]C(Cn2ccnc2)c2ccc(Cl)cc2Cl)c(Cl)c1` (centres undefined), for which the MIC against Candida albicans [1] was determined as 16 µg/mL (≈ 28.6 µM); in the data set with Pichia kudriavzevii, 128 µg/mL (≈ 229 µM); in the data set with Candida albicans [5] it was 16 µg/mL (≈ 28.6 µM); with Candida parapsilosis it was 64 µg/mL (≈ 114 µM); in [Candida] zeylanoides it was 8 µg/mL (≈ 14.3 µM); against Nakaseomyces glabratus, 64 µg/mL (≈ 114 µM). Further, the MIC is 2 µg/mL (≈ 3.58 µM) in the data set with Candida albicans [7]; 2 µg/mL (≈ 3.58 µM) against Candida albicans [8]; over 64 µg/mL with Aspergillus fumigatus; 64 µg/mL (≈ 114 µM) in the data set with Cryptococcus neoformans; 16 µg/mL (≈ 28.6 µM) against Candida albicans [10]; 64 µg/mL (≈ 114 µM) against Candida albicans [12]. Further, inhibition of growth in the data set on Candida albicans [13] (MIC) required 2 µg/mL (≈ 3.58 µM). For the same compound, the minimum fungicidal concentration (MFC) against Candida albicans [2] is over 64 µg/mL; with Candida albicans [3], 64 µg/mL (≈ 114 µM); against Candida albicans [4], over 64 µg/mL; against Candida albicans [6] it was over 64 µg/mL; with Candida albicans [9] it was over 64 µg/mL; against Candida albicans [11] it was over 64 µg/mL. This compound gave an MFC in the data set with Candida albicans [14] of 32 µg/mL (≈ 57.2 µM).
As to `Fc1ccc(C(Cn2ccnc2)[Se][Se]C(Cn2ccnc2)c2ccc(F)cc2F)c(F)c1` (centres undefined), the minimal inhibitory concentration (MIC) stood at 8 µg/mL (≈ 14 µM) with Candida albicans [1]; 8 µg/mL (≈ 14 µM) in the data set with Candida albicans [5]; 8 µg/mL (≈ 14 µM) with Candida albicans [8]; 4 µg/mL (≈ 6.99 µM) with Candida albicans [12]; 4 µg/mL (≈ 6.99 µM) against Candida albicans [13]. The minimum fungicidal concentration (MFC) is over 64 µg/mL in the data set on Candida albicans [2]; 16 µg/mL (≈ 28 µM) in the data set with Candida albicans [3]; 8 µg/mL (≈ 14 µM) against Candida albicans [4]; over 64 µg/mL with Candida albicans [6]; 16 µg/mL (≈ 28 µM) in the data set with Candida albicans [9]; 32 µg/mL (≈ 55.9 µM) with Candida albicans [11]. In the data set with Candida albicans [14], the minimal fungicidal concentration (MFC) was 8 µg/mL (≈ 14 µM).
As to `Fc1ccc(C(Cn2ccnc2)[Se]C(Cn2ccnc2)c2ccc(F)cc2)cc1` (centres undefined), the MIC stood at 32 µg/mL (≈ 70 µM) in the data set on Candida albicans [1]; 32 µg/mL (≈ 70 µM) with Pichia kudriavzevii; 4 µg/mL (≈ 8.75 µM) against Candida albicans [5]; 16 µg/mL (≈ 35 µM) in the data set on Candida parapsilosis; 4 µg/mL (≈ 8.75 µM) in [Candida] zeylanoides; 64 µg/mL (≈ 140 µM) in the data set with Nakaseomyces glabratus. Also, the minimal inhibitory concentration (MIC) with Candida albicans [7] was 2 µg/mL (≈ 4.37 µM); in the data set with Candida albicans [8] it was 4 µg/mL (≈ 8.75 µM); with Aspergillus fumigatus, over 64 µg/mL; with Cryptococcus neoformans, 64 µg/mL (≈ 140 µM); in the data set with Candida albicans [10] it was 4 µg/mL (≈ 8.75 µM); against Candida albicans [12] it was 16 µg/mL (≈ 35 µM). Moreover, the MIC against Candida albicans [13] turned out to be 2 µg/mL (≈ 4.37 µM). Moreover, the minimum fungicidal concentration (MFC) was over 64 µg/mL against Candida albicans [2]; 16 µg/mL (≈ 35 µM) against Candida albicans [3]; 64 µg/mL (≈ 140 µM) against Candida albicans [4]; over 64 µg/mL against Candida albicans [6]; 16 µg/mL (≈ 35 µM) with Candida albicans [9]; 64 µg/mL (≈ 140 µM) against Candida albicans [11]. The minimal fungicidal concentration (MFC) with Candida albicans [14] was over 64 µg/mL.
In turn, `CC(=O)O[C@H]1C(=O)[C@@]2(C)[C@H]([C@H](OC(=O)c3ccccc3)[C@]3(O)C[C@H](OC(=O)[C@H](O)[C@@H](NC(=O)c4ccccc4)c4ccccc4)C(C)=C1C3(C)C)[C@]1(OC(C)=O)CO[C@@H]1C[C@@H]2O` [PACLITAXEL] gave a negative-log IC50 (pIC50) in data set [15] of over 7.60.
As to `c1ccc(C(Cn2ccnc2)[Se]C(Cn2ccnc2)c2ccccc2)cc1` (centres undefined), the minimum inhibitory concentration (MIC) against Candida albicans [1] was 4 µg/mL (≈ 9.49 µM); with Pichia kudriavzevii it was 16 µg/mL (≈ 38 µM); with Candida albicans [5], 8 µg/mL (≈ 19 µM); with Candida parapsilosis, 4 µg/mL (≈ 9.49 µM); in [Candida] zeylanoides, 4 µg/mL (≈ 9.49 µM); with Nakaseomyces glabratus, 16 µg/mL (≈ 38 µM). The minimum inhibitory concentration (MIC) in the data set on Candida albicans [7] was 4 µg/mL (≈ 9.49 µM); in the data set on Candida albicans [8], 0.5 µg/mL (≈ 1.19 µM); against Aspergillus fumigatus it was over 64 µg/mL; against Cryptococcus neoformans it was 64 µg/mL (≈ 152 µM); against Candida albicans [10] it was 8 µg/mL (≈ 19 µM); with Candida albicans [12], 8 µg/mL (≈ 19 µM). In the data set with Candida albicans [13], the MIC came out at 4 µg/mL (≈ 9.49 µM). The MFC in the data set with Candida albicans [2] is over 64 µg/mL; in the data set on Candida albicans [3], 8 µg/mL (≈ 19 µM); against Candida albicans [4], 16 µg/mL (≈ 38 µM); against Candida albicans [6], over 64 µg/mL; with Candida albicans [9], 16 µg/mL (≈ 38 µM); against Candida albicans [11] it was 64 µg/mL (≈ 152 µM). Besides, in the data set on Candida albicans [14], the MFC came out at 8 µg/mL (≈ 19 µM).
Consider `Fc1ccc(C(Cn2ccnc2)[Se][Se]C(Cn2ccnc2)c2ccc(F)cc2)cc1` (centres undefined), for which the MIC with Candida albicans [1] came to 64 µg/mL (≈ 119 µM); in the data set on Candida albicans [5], 64 µg/mL (≈ 119 µM); against Candida albicans [8], 32 µg/mL (≈ 59.7 µM); against Candida albicans [12], 16 µg/mL (≈ 29.8 µM); in the data set with Candida albicans [13], 4 µg/mL (≈ 7.46 µM). In addition, the minimum fungicidal concentration (MFC) against Candida albicans [2] is over 64 µg/mL; with Candida albicans [3], over 64 µg/mL; with Candida albicans [4], 32 µg/mL (≈ 59.7 µM); against Candida albicans [6], over 64 µg/mL; against Candida albicans [9] it was over 64 µg/mL; against Candida albicans [11] it was over 64 µg/mL. In the data set with Candida albicans [14], this compound showed a minimal fungicidal concentration (MFC) of 64 µg/mL (≈ 119 µM).
On to `COc1cccc2c1C(=O)c1c(O)c3c(c(O)c1C2=O)C[C@@](O)(C(=O)CO)C[C@@H]3O[C@H]1C[C@H](N)[C@H](O)[C@H](C)O1` [DOXORUBICIN], for which the pIC50 in [16] is over 6.90.
As for `c1ccc(C(Cn2ccnc2)[Se][Se]C(Cn2ccnc2)c2ccccc2)cc1` (centres undefined), the MIC in the data set on Candida albicans [1] is 8 µg/mL (≈ 16 µM); in the data set on Candida albicans [5], 8 µg/mL (≈ 16 µM); with Candida albicans [8] it was over 64 µg/mL; in the data set with Candida albicans [12], 4 µg/mL (≈ 7.99 µM); in the data set with Candida albicans [13], 2 µg/mL (≈ 4 µM). Also, the MFC in the data set with Candida albicans [2] was over 64 µg/mL; in the data set with Candida albicans [3] it was 16 µg/mL (≈ 32 µM); in the data set with Candida albicans [4], 8 µg/mL (≈ 16 µM); against Candida albicans [6], over 64 µg/mL; against Candida albicans [9], 16 µg/mL (≈ 32 µM); against Candida albicans [11] it was 64 µg/mL (≈ 128 µM). Moreover, the minimum fungicidal concentration (MFC) with Candida albicans [14] turned out to be 8 µg/mL (≈ 16 µM).
On to `Fc1ccc(C(Cn2cncn2)[Se]C(Cn2cncn2)c2ccc(F)cc2F)c(F)c1` (centres undefined), for which the MIC against Candida albicans [1] is 16 µg/mL (≈ 32.3 µM); in the data set on Pichia kudriavzevii, over 64 µg/mL; against Candida albicans [5], 32 µg/mL (≈ 64.6 µM); with Candida parapsilosis it was over 64 µg/mL; in data set [Candida] zeylanoides it was 8 µg/mL (≈ 16.2 µM); in the data set with Nakaseomyces glabratus, over 64 µg/mL. Besides, the MIC against Candida albicans [7] was 4 µg/mL (≈ 8.08 µM); in the data set on Candida albicans [8], 8 µg/mL (≈ 16.2 µM); with Aspergillus fumigatus it was over 64 µg/mL; with Cryptococcus neoformans, 4 µg/mL (≈ 8.08 µM); against Candida albicans [10], 64 µg/mL (≈ 129 µM); in the data set with Candida albicans [12], 16 µg/mL (≈ 32.3 µM). The compound also came in with a minimal inhibitory concentration (MIC) against Candida albicans [13] of 32 µg/mL (≈ 64.6 µM).
As to `Clc1ccc(C(Cn2cncn2)[Se]C(Cn2cncn2)c2ccc(Cl)cc2)cc1` (centres undefined), the MIC was 64 µg/mL (≈ 130 µM) against Candida albicans [1]; over 64 µg/mL against Pichia kudriavzevii; over 64 µg/mL in the data set with Candida albicans [5]; over 64 µg/mL in the data set with Candida parapsilosis; 16 µg/mL (≈ 32.5 µM) in data set [Candida] zeylanoides; over 64 µg/mL with Nakaseomyces glabratus. Besides, the minimal inhibitory concentration (MIC) against Candida albicans [7] is 32 µg/mL (≈ 65 µM); against Candida albicans [8], 8 µg/mL (≈ 16.3 µM); with Aspergillus fumigatus, over 64 µg/mL; in the data set on Cryptococcus neoformans, 4 µg/mL (≈ 8.13 µM); in the data set on Candida albicans [10], over 64 µg/mL; with Candida albicans [12], 16 µg/mL (≈ 32.5 µM). Further, in the data set on Candida albicans [13], the minimal inhibitory concentration (MIC) is 32 µg/mL (≈ 65 µM).
